Key:
SF-539 = test: NCI human tumor cell panel: SF-539 (CNS Cancer); format: cell-based
NCI-H23 = test: NCI human tumor cell panel: NCI-H23 (Non-Small Cell Lung Cancer); format: cell-based
SK-MEL-5 = test: NCI human tumor cell panel: SK-MEL-5 (Melanoma); format: cell-based; details: SK-MEL-5, read-out: Log10 TGI (converted)
OVCAR-5 = test: NCI human tumor cell panel: OVCAR-5 (Ovarian Cancer); format: cell-based
SR = test: NCI human tumor cell panel: SR (Leukemia); format: cell-based
MCF7/ADR-RES = test: NCI human tumor cell panel: MCF7/ADR-RES (Breast Cancer); format: cell-based
MDA-N = test: NCI human tumor cell panel: MDA-N (Breast Cancer); format: cell-based
786-0 = test: NCI human tumor cell panel: 786-0 (Renal Cancer); format: cell-based
RPMI-8226 = test: NCI human tumor cell panel: RPMI-8226 (Leukemia); format: cell-based
SF-295 = test: NCI human tumor cell panel: SF-295 (CNS Cancer); format: cell-based
HS 578T = test: NCI human tumor cell panel: HS 578T (Breast Cancer); format: cell-based
HOP-92 = test: NCI human tumor cell panel: HOP-92 (Non-Small Cell Lung Cancer)
UO-31 = test: NCI human tumor cell panel: UO-31 (Renal Cancer); format: cell-based
SW-620 = test: NCI human tumor cell panel: SW-620 (Colon Cancer); format: cell-based
OVCAR-4 = test: NCI human tumor cell panel: OVCAR-4 (Ovarian Cancer); format: cell-based
UACC-257 = test: NCI human tumor cell panel: UACC-257 (Melanoma); format: cell-based
HOP-62 = test: NCI human tumor cell panel: HOP-62 (Non-Small Cell Lung Cancer); format: cell-based
BT-549 = test: NCI human tumor cell panel: BT-549 (Breast Cancer); format: cell-based
CCRF-CEM = test: NCI human tumor cell panel: CCRF-CEM (Leukemia); format: cell-based
OVCAR-8 = test: NCI human tumor cell panel: OVCAR-8 (Ovarian Cancer); format: cell-based
SK-MEL-2 = test: NCI human tumor cell panel: SK-MEL-2 (Melanoma); format: cell-based
M14 = test: NCI human tumor cell panel: M14 (Melanoma); format: cell-based
MCF7 = test: NCI human tumor cell panel: MCF7 (Breast Cancer); format: cell-based
MDA-MB-435 = test: NCI human tumor cell panel: MDA-MB-435 (Breast Cancer); format: cell-based
NCI-H460 = test: NCI human tumor cell panel: NCI-H460 (Non-Small Cell Lung Cancer); format: cell-based
SN12C = test: NCI human tumor cell panel: SN12C (Renal Cancer); format: cell-based
DU-145 = test: NCI human tumor cell panel: DU-145 (Prostate Cancer); format: cell-based
A498 = test: NCI human tumor cell panel: A498 (Renal Cancer); format: cell-based
UACC-62 = test: NCI human tumor cell panel: UACC-62 (Melanoma); format: cell-based
LOX IMVI = test: NCI human tumor cell panel: LOX IMVI (Melanoma); format: cell-based
[1] = read-out: Log10 GI50 (converted)
[2] = read-out: Log10 TGI (converted)

## OCc1ccc(-c2ccc(-c3ccc(CO)s3)[se]2)s1 [compound 675343]
SF-539; SF-539, read-out: Log10 GI50 (converted)
  GI50: > 100 µM
SF-539; SF-539, read-out: Log10 TGI (converted)
  IC (TGI): > 100 µM
NCI-H23; NCI-H23, read-out: Log10 GI50 (converted)
  GI50: > 100 µM
NCI-H23; NCI-H23, read-out: Log10 TGI (converted)
  IC (TGI): > 100 µM
SK-MEL-5
  IC (TGI): > 100 µM
OVCAR-5; OVCAR-5, read-out: Log10 GI50 (converted)
  GI50: 0.158 µM
OVCAR-5; OVCAR-5, read-out: Log10 TGI (converted)
  IC (TGI): > 100 µM
SR; [1]
  GI50: > 100 µM
SR; [2]
  IC (TGI): > 100 µM
MCF7/ADR-RES; [1]
  GI50: > 100 µM
MCF7/ADR-RES; [2]
  IC (TGI): > 100 µM
MDA-N; [1]
  GI50: > 100 µM
MDA-N; [2]
  IC (TGI): > 100 µM
786-0; 786-0, read-out: Log10 GI50 (converted)
  GI50: > 100 µM
786-0; 786-0, read-out: Log10 TGI (converted)
  IC (TGI): > 100 µM
RPMI-8226; RPMI-8226, read-out: Log10 GI50 (converted)
  GI50: > 100 µM
RPMI-8226; RPMI-8226, read-out: Log10 TGI
  IC (TGI): > 100 µM
SF-295; SF-295, read-out: Log10 GI50 (converted)
  GI50: > 100 µM
SF-295; SF-295, read-out: Log10 TGI (converted)
  IC (TGI): > 100 µM
HS 578T; [1]
  GI50: > 100 µM
HS 578T; [2]
  IC (TGI): > 100 µM
HOP-92; HOP-92, read-out: Log10 GI50 (converted)
  GI50: 40.7 µM
HOP-92; HOP-92, read-out: Log10 TGI
  IC (TGI): > 100 µM
UO-31; UO-31, read-out: Log10 GI50 (converted)
  GI50: > 100 µM
UO-31; UO-31, read-out: Log10 TGI (converted)
  IC (TGI): > 100 µM
SW-620; SW-620, read-out: Log10 GI50 (converted)
  GI50: < 0.01 µM
SW-620; SW-620, read-out: Log10 TGI (converted)
  IC (TGI): > 100 µM
OVCAR-4; OVCAR-4, read-out: Log10 GI50 (converted)
  GI50: < 0.01 µM
OVCAR-4; OVCAR-4, read-out: Log10 TGI (converted)
  IC (TGI): > 100 µM
UACC-257; UACC-257, read-out: Log10 GI50 (converted)
  GI50: < 0.01 µM
UACC-257; UACC-257, read-out: Log10 TGI (converted)
  IC (TGI): < 0.01 µM
HOP-62; HOP-62, read-out: Log10 GI50 (converted)
  GI50: > 100 µM
HOP-62; HOP-62, read-out: Log10 TGI (converted)
  IC (TGI): > 100 µM
BT-549; BT-549, read-out: Log10 GI50 (converted)
  GI50: > 100 µM
BT-549; BT-549, read-out: Log10 TGI (converted)
  IC (TGI): > 100 µM
CCRF-CEM; [1]
  GI50: 22.4 µM
CCRF-CEM; [2]
  IC (TGI): 60.3 µM
OVCAR-8; OVCAR-8, read-out: Log10 GI50 (converted)
  GI50: < 0.01 µM
OVCAR-8; OVCAR-8, read-out: Log10 TGI (converted)
  IC (TGI): > 100 µM
SK-MEL-2; SK-MEL-2, read-out: Log10 GI50 (converted)
  GI50: > 100 µM
SK-MEL-2; SK-MEL-2, read-out: Log10 TGI (converted)
  IC (TGI): > 100 µM
M14; M14, read-out: Log10 GI50 (converted)
  GI50: > 100 µM
M14; M14, read-out: Log10 TGI (converted)
  IC (TGI): > 100 µM
MCF7; MCF7, read-out: Log10 GI50 (converted)
  GI50: < 0.01 µM
MCF7; MCF7, read-out: Log10 TGI (converted)
  IC (TGI): > 100 µM
MDA-MB-435; MDA-MB-435, read-out: Log10 GI50 (converted)
  GI50: > 100 µM
MDA-MB-435; MDA-MB-435, read-out: Log10 TGI (converted)
  IC (TGI): > 100 µM
NCI-H460; NCI-H460, read-out: Log10 GI50 (converted)
  GI50: < 0.01 µM
NCI-H460; NCI-H460, read-out: Log10 TGI (converted)
  IC (TGI): > 100 µM
SN12C; [1]
  GI50: > 100 µM
SN12C; [2]
  IC (TGI): > 100 µM
DU-145; DU-145, read-out: Log10 GI50 (converted)
  GI50: > 100 µM
DU-145; DU-145, read-out: Log10 TGI (converted)
  IC (TGI): > 100 µM
A498; A498, read-out: Log10 GI50 (converted)
  GI50: < 0.01 µM
A498; A498, read-out: Log10 TGI (converted)
  IC (TGI): < 0.01 µM
UACC-62; UACC-62, read-out: Log10 GI50 (converted)
  GI50: < 0.01 µM
UACC-62; UACC-62, read-out: Log10 TGI (converted)
  IC (TGI): > 100 µM
LOX IMVI; [1]
  GI50: > 100 µM
LOX IMVI; [2]
  IC (TGI): > 100 µM
